In patent US20250368648A1, “MULTI-CYCLIC IRAK AND FLT3 INHIBITING COMPOUNDS AND USES THEREOF” (CHILDREN'S HOSPITAL MEDICAL CENTER, priority 2022, published 2025):

How the values were obtained:
[1] = system: MOLM14 (D835Y) cells; test: Combination drug screening, Cell Titer Glo, MOLM14 (D835Y) cells; conditions: MOLM14(D835Y) cells; for Excess HSA Score: sum score, listed as compound in combination with Compound 106, 48 hours;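 as to all read-outs here: MOLM14 cells with FLT3 ITD plus D835Y, 500 per well in 1536-well plates, 10-point dose ranges, luminescent viability after 48 h, negative Excess HSA indicates synergy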
Experimental: Briefly, 10 nL of the compound shown below was acoustically dispensed into 1536-well white polystyrene tissue culture-treated plates with an Echo 550 acoustic liquid handler (Labcyte). Cells were then added to compound-containing plate at a density of 500-cells/well in 5 μL of medium. A 6-point or 10-point custom concentration range was used for all listed drugs. Plates were incubated for 48 hours at standard incubator conditions covered by a stainless steel gasketed lid to prevent evaporation. 48h post compound addition, 3 μL of Cell Titer Glo (Promega) were added to each well and plates were incubated at room temperature for 15 minutes with the stainless-steel lid in place. Luminescence readings were taken using a Viewlux imager (PerkinElmer) with a 2 second exposure time per plate.
A smaller concentration indicates higher potency to synergize with Venetoclax.
A smaller concentration indicates higher potency to synergize with azacitidine.
(§1) This is a cell line that has the FLT3 ITD mutation but also the FLT3 D835Y kinase domain mutation. […] Excess HSA is a measure of synergy vs. additivity or antagonism, wherein a negative Excess HSA value is indicative of synergy.

[2] = system: THP1 cells; test: Combination drug screening, Cell Titer Glo, THP1 cells; conditions: sum score, THP1 cells, 10 × 10 dataset, 48 hours;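 also: luminescence read out in 1536-well plates seeded with 500 THP1 cells per well, each drug spanning a 10-point concentration range in the combination matrix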
Text: A smaller concentration indicates higher potency to synergize with Venetoclax. […] The numbers in each cell represent the % response (left) or the Delta Bliss score (right) at each given concentration combination.
A smaller concentration indicates higher potency to synergize with azacitidine. […] The numbers in each cell represent the % response (left) or the Delta Bliss score (right) at each given concentration combination.
as §1
Briefly, 10 nL of compounds were acoustically dispensed into 1536-well white polystyrene tissue culture-treated plates with an Echo 550 acoustic liquid handler (Labcyte). MOLM14 (D835Y) or THP1 cells were then added to compound-containing plates at a density of 500-cells/well in 5 μL of medium. A 10-point custom concentration range was used for all listed drugs. […] 48h post compound addition, 3 μL of Cell Titer Glo (Promega) were added to each well and plates were incubated at room temperature for 15 minutes with the stainless-steel lid in place. Luminescence readings were taken using a Viewlux imager (PerkinElmer) with a 2 second exposure time per plate.

[3] = combination therapy of CG-806 (a FLT3/BTK inhibitor) and the named additional compound, 110 × 10 dataset
[4] = combination therapy of Compound 45a and the named additional compound, 110 × 10 dataset
[5] = combination therapy of Compound 46a and the named additional compound, 110 × 10 dataset
[6] = combination therapy of Compound 47a and the named additional compound, 110 × 10 dataset
[7] = combination therapy of Compound 48a and the named additional compound, 110 × 10 dataset
[8] = combination therapy of Compound 102 and the named additional compound, 10 × 10 dataset
[9] = combination therapy of Gilteritinib (a FLT3/AXL inhibitor) and the named additional compound, 110 × 10 dataset
[10] = combination therapy of PF-06650833 (an IRAK4 selective inhibitor) and the named additional compound, 110 × 10 dataset
[11] = combination therapy of Quizartinib (a FLT3/Kit/PDGFRa inhibitor) and the named additional compound, 110 × 10 dataset
[12] = combination therapy of emavusertib (CA-4948) (a FLT3/IRAK4 inhibitor) and the named additional compound, 110 × 10 dataset
[13] = listed as compound in combination with CG-806 (a FLT3/BTK inhibitor)
[14] = listed as compound in combination with Compound 45a
[15] = listed as compound in combination with Compound 46a
[16] = listed as compound in combination with Compound 47a
[17] = listed as compound in combination with Compound 48a
[18] = listed as compound in combination with Compound 102
[19] = listed as compound in combination with Compound 106
[20] = listed as compound in combination with Gilteritinib (a FLT3/AXL inhibitor)
[21] = listed as compound in combination with PF-06650833 (an IRAK4 selective inhibitor)
[22] = listed as compound in combination with Quizartinib (a FLT3/Kit/PDGFRa inhibitor)
[23] = listed as compound in combination with emavusertib (CA-4948) (a FLT3/IRAK4 inhibitor)

Row | Structure (SMILES) | Sum Excess HSA Score [1, 3] | Sum Excess HSA Score [1, 4] | Sum Excess HSA Score [1, 5] | Sum Excess HSA Score [1, 6] | Sum Excess HSA Score [1, 7] | Sum Excess HSA Score [1, 8] | Sum Excess HSA Score [1, 9] | Sum Excess HSA Score [1, 10] | Sum Excess HSA Score [1, 11] | Sum Excess HSA Score [1, 12] | Excess HSA Score ([1]; 10 × 10 dataset) | Excess HSA Score [2, 13] | Excess HSA Score [2, 14] | Excess HSA Score [2, 15] | Excess HSA Score [2, 16] | Excess HSA Score [2, 17] | Excess HSA Score [2, 18] | Excess HSA Score [2, 19] | Excess HSA Score [2, 20] | Excess HSA Score [2, 21] | further results
1 | CCN(C(=O)c1cc(F)ccc1Oc1cncnc1N1CC2(CCN(C[C@H]3CC[C@H](NS(=O)(=O)CC)CC3)CC2)C1)C(C)C [SNDX-5613] | −1.886 | −24.88 | −263.9 | −358.8 | −804.1 | −748.9985 | 47.75 | −301.3 | −724.1 | −321 | −210.8 | 321.1921 | 434.8 | 262.8 | 247.1 | 138.2 | 156.4 | 375.4 | 306.1 | −120 | Excess HSA Score [2, 22]: 413.2; Excess HSA Score [2, 23]: 468.5
2 | C[C@@H]1OCC2(CCN(c3cnc(Sc4ccnc(N)c4Cl)c(N)n3)CC2)[C@@H]1N [TNO-155] | −753.6 | −1028 | −1041.6332 | −1163 | −1024 | −510.7 | −895.7 | −773.7 | −1091 | −470.2 | −943.9 | −198.4 | 64.74 | 591.7 | 207 | −3.87 | 485.0784 | −22.86 | 394.2 | −194.1 | Excess HSA Score [2, 22]: 587.7; Excess HSA Score [2, 23]: 527.1
